Results on 4 compounds are retold here after PMC6009904, “Carbonic anhydrase inhibitory properties of some uracil derivatives” (Journal of Enzyme Inhibition and Medicinal Chemistry, 2017).

For one test, the target named is T1, hCA I (Homo sapiens, UniProt P00915).
T1 construct: we have purified CA I and II (hCA I and hCA II) from human erythrocytes; from tissue; host or cells: human erythrocytes (fresh human blood)
The test can be described thus: hCA I inhibition, esterase assay with 4-nitrophenylacetate as substrate. The following applies: 4-nitrophenylacetate substrate, mean from at least three determinations, enzyme purified from human erythrocytes. The class given is biochemical. The protocol:
(§1) Erythrocytes were purified from fresh human blood obtained from the Blood Centre of the Research Hospital at Atatürk University. The blood samples were centrifuged at 1500 rpm for 15 min and the plasma and buffy coat were removed. The red cells were isolated and washed twice with 0.9% NaCl, and hemolysed with 1.5 volumes of ice-cold water. The ghost and intact cells were removed by centrifugation at 20 000 rpm for 30 min at 4 °C. The pH of the hemolysate was adjusted to 8.7 with solid Tris[18]. Firstly, benzoyl chloride and stirred for four hours at room temperature in CH2Cl2 cellulose. After the spacer arm cellulose added as a benzyl group and finally diazotized sulfanilamide clamped to the para position of benzyl group as ligand. The hemolysate was applied to the prepared cellulose-benzyl-sulfanylamide affinity column equilibrated with 25 mM Tris-HCl/0.1 M Na2SO4 (pH 8.7). The affinity gel was washed with 25 mM Tris-HCl/22 mM Na2SO4 (pH 8.7). The human carbonic anhydrase (hCA I and hCA II) isozymes were eluted with 1 M NaCl/25 mM Na2HPO4 (pH 6.3) and 0.1 M CH3COONa/0.5 M NaClO4 (pH 5.6), respectively. All procedures were performed at 4 °C[16].
(§2) Enzyme activity was determined spectrophotometrically by following the change in absorbance at 348 nm of 4-nitrophenylacetate to 4-nitrophenylate over a period of 3 min at 25 °C[19–21]. The enzymatic reaction contained 1.4 mL 0.05 M Tris-SO4 buffer (pH 7.4), 1 mL 3 mM 4-nitrophenylacetate, 0.5 mL H2O and 0.1 mL enzyme solution, in a total volume of 3.0 mL[22]. Inhibitory effects of compounds 4–12 were compared with phenolic compounds 13–15. Different inhibitor concentrations were used and all compounds were tested in triplicate at each concentration used. Control cuvette activity was acknowledged as 100% in the absence of inhibitor. An Activity% – [Inhibitor] graph was drawn for each inhibitor[22–24]. The curve-fitting algorithm allowed to obtain the IC50 values, working at the lowest concentration of substrate of 0.15 mM, from which KI values were calculated[25]^,[26]. The catalytic activity of these enzymes was calculated from Lineweaver–Burk plots, as reported earlier, and represent the mean from at least three different determinations. The CA I and II isoenzymes used here were purified from human blood as described earlier.

The target of the next test is T2, hCA II (Homo sapiens, UniProt P00918).
T2 construct: we have purified CA I and II (hCA I and hCA II) from human erythrocytes; from tissue; host or cells: human erythrocytes (fresh human blood)
The test can be described thus: hCA II inhibition, esterase assay with 4-nitrophenylacetate as substrate. The class given is biochemical. The settings on record: 4-nitrophenylacetate substrate, mean from at least three determinations, enzyme purified from human erythrocytes. The protocol:
as §1, §2

SMILES strings stand for the structures.

T1 sequence (P00915 whole entry): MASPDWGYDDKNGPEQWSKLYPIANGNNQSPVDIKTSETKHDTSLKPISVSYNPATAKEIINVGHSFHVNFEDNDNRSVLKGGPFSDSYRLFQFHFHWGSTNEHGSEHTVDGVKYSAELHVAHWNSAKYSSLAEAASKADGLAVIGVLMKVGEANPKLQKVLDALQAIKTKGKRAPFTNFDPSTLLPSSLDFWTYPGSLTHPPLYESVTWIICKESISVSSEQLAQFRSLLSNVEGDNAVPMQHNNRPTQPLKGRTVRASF

Broadly, the Ki is a measure of affinity in units of concentration, obtained from inhibition or displacement. A lower Ki goes with higher affinity. Turning to `Cn1c(N)c(N)c(=O)n(C)c1=O` [5,6-Diamino 1,3-Dimethyluracil (12), 5,6-Diamino 1,3-Dimethyluracil], the Ki is 104 nM on hCA I and 236 nM on hCA II.
On the same counts, the results for `Cn1c(N)cc(=O)n(C)c1=O` [6-Amino 1,3-Dimethyluracil (11), 6-Amino 1,3-Dimethyluracil] are 85 nM and 172 nM.
As to `O=C(O)c1c[nH]c(=O)[nH]c1=O` [Isoorotic acid (10), isoorotic acid], the inhibition constant Ki on hCA I is 459 nM; at hCA II, 1430 nM.
For the compound `O=C(O)c1cc(=O)[nH]c(=O)[nH]1` [Orotic acid (9), Orotic acid], the results for the inhibition constant Ki on hCA I and at hCA II were 732 nM and 1680 nM, respectively.
